Data published in patent US20180230127A1 (PFIZER INC., priority 2015, published 2018).
Where a name gives a salt, the structure may show the parent alone.

target: T1, human IRAK4 kinase domain (aa 154-460) (Homo sapiens, UniProt Q9NWZ3); experiment: IRAK4 Enzymatic DELFIA Assay; assay type: biochemical; details: 0.6 mM ATP (KM); 114 pM IRAK4 kinase domain; 200 nM substrate; 5% DMSO
T1 construct: human IRAK4 kinase domain (aa 154-460; GenBank ID AF445802)
T1 sequence (Q9NWZ3 154-460): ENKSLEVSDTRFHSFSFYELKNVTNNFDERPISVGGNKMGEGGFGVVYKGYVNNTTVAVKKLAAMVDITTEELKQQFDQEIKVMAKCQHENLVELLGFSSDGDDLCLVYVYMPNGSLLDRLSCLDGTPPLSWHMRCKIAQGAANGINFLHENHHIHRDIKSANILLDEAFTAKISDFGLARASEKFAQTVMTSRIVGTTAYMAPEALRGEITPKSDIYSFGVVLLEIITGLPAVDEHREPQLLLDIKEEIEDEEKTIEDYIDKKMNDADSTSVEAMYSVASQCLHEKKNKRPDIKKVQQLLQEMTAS
Method: IRAK4 Enzymatic DELFIA Assay.
This is an in vitro assay to measure IRAK4 enzymatic activity utilizing the DELFIA (Dissociation-Enhanced Lanthanide Fluorescent Immunoassay, Perkin-Elmer) platform, with the human IRAK4 kinase domain (aa 154-460) construct to characterize IRAK4 inhibitor and control compounds at 0.6 mM ATP (KM). The final amount of enzyme in the assay is 114 pM IRAK4 kinase domain, final concentration of substrate is 200 nM, and final concentration of DMSO is 5%.
The test compound was solubilized in DMSO to a stock concentration of 30 mM. The dose response plates were prepared with a 2 mM primary compound concentration, and then diluted in DMSO in a four-fold series for a total of 10 data points. Compounds were prepared as a 20-fold multiple of the final in-assay concentration
To begin the assay, 45 μL of reaction mixture containing 20 mM HEPES pH=7.5, 5 mM MgCl2, 0.0025% Brij-35, […], 228 pM phosphorylated recombinant human IRAK4 kinase domain (aa 154-460; GenBank ID AF445802) were aliquoted into Ultra-Clear Polypropylene, 96-well, U-Bottom Plates (Corning Life Sciences). 5 μL of test compound from the dose-response plate was added to the reaction mixture and incubated for 15 minutes at room temperature. Then 50 μL of 20 mM HEPES pH=7.5, 5 mM MgCl2, 0.0025% Brij-35, 600 μM ATP, and 400 nM ERM-biotinylated peptide (AGAGRDKYKTLRQIR) were added to start the reaction. The reaction was incubated for 90 minutes at room temperature and stopped by the addition of 25 μL 0.5M EDTA.
100 μL of the reaction mixture was transferred to a streptavidin coated detection plate (EvenCoat Streptavidin Coated Plates, 96-Well, R&D Systems) and incubated for 30 minutes at room temperature. The plates were washed 4 times with 100 μL per well of PBS containing 0.05% Tween-20. Plates were then incubated with 50 μL per well of antibody cocktail of Anti-pERM antibody (Cell Signaling Technology) diluted 1:5000, plus Anti-Rabbit IgG EuN1 at 0.242 μg/ml (Perkin-Elmer Life Sciences) in a solution of 10 mM MOPS pH=7.5, 150 mM NaCl, 0.05% Tween-20, 0.02% NaN3, 1% BSA, 0.1% Gelatin for 45 minutes. The plates were washed 4× with 100 μL per well of PBS containing 0.05% Tween-20. Then 100 μL per well of DELFIA Enhancement Solution were added to the plate and then read on an EnVision Model 2103 using a 340 nm excitation wavelength and a 665 nm emission detection.

SMILES | IC50
CC(C)Oc1cc2c(OC3CCNC3=O)ccnc2cc1C(N)=O (stereo not shown) [Example 27, 4-[(2-oxopyrrolidin-3-yl)oxy]-6-(propan-2-yloxy)quinoline-7-carboxamide] | 642 nM
CC(C)Oc1cc2c(O[C@@H]3CCCNC3)cccc2cc1C(N)=O [Example 69, (R)-3-isopropoxy-5-(piperidin-3-yloxy)-2-naphthamide trifluoroacetate] | 36 nM
CC(C)Oc1cc2c(O[C@H]3CCN(C(=O)CC#N)C[C@H]3F)ccnc2cc1C(N)=O [Example 18, 4-{[(3R,4S)-1-(cyanoacetyl)-3-fluoropiperidin-4-yl]oxy}-6-(propan-2-yloxy)quinoline-7-carboxamide formate] | 660 nM
CC(C)Oc1cc2c(O[C@H]3CN(C(=O)CC#N)CC[C@@H]3C)nccc2cc1C(N)=O [Example 49, 1-{[(3R,4S)-1-(cyanoacetyl)-4-methylpiperidin-3-yl]oxy}-7-(propan-2-yloxy)isoquinoline-6-carboxamide] | 29 nM
CC(C)Oc1cc2c(O[C@@H]3CCNC[C@H]3F)nccc2cc1C(N)=O [Example 19, 1-{[(3R,4R)-3-fluoropiperidin-4-yl]oxy}-7-(propan-2-yloxy)isoquinoline-6-carboxamide] | 39 nM
CC(C)Oc1cc2c(O[C@H]3CCN(C(=O)CC#N)C3)nccc2cc1C(N)=O [Example 1, 1-{[(3S)-1-(cyanoacetyl)pyrrolidin-3-yl]oxy}-7-(propan-2-yloxy)isoquinoline-6-carboxamide formate] | 53 nM
CC(C)Oc1cc2c(O[C@@H]3CC[C@H](C)NC3)ccnc2cc1C(N)=O [Example 59, 4-{[(3R,6S)-6-methylpiperidin-3-yl]oxy}-6-(propan-2-yloxy)quinoline-7-carboxamide] | 919 nM
CC(C)Oc1cc2c(O[C@@H]3CCCNC3)ncc(C#N)c2cc1C(N)=O [Example 73, 4-cyano-1-[(3R)-piperidin-3-yloxy]-7-(propan-2-yloxy)isoquinoline-6-carboxamide] | 1590 nM
CCOc1cc2c(O[C@@H]3CCCNC3)ccnc2cc1C(N)=O [Example 65, (R)-6-ethoxy-4-(piperidin-3-yloxy)quinoline-7-carboxamide hydrochloride] | 419 nM
CC[C@H](C)Oc1cc2c(O[C@@H]3CCCNC3)ccnc2cc1C(N)=O [Example 72, 6-[(2S)-butan-2-yloxy]-4-[(3R)-piperidin-3-yloxy]quinoline-7-carboxamide] | 1100 nM
CC(C)Oc1cc2c(O[C@H]3C[C@H]4CC[C@@H](C3)N4)nccc2cc1C(N)=O [Example 80, 1-[(3-endo)-8-azabicyclo[3.2.1]oct-3-yloxy]-7-(propan-2-yloxy)isoquinoline-6-carboxamide] | 1320 nM
CC(C)Oc1cc2c(O[C@@H]3CCCNC3)nccc2cc1C(N)=O [Example 53, 1-[(3R)-piperidin-3-yloxy]-7-(propan-2-yloxy)isoquinoline-6-carboxamide hydrochloride] | 43 nM
CC(C)Oc1cc2c(O[C@H]3CCN(C(=O)CC#N)[C@@H]3C)ccnc2cc1C(N)=O [Example 17, 4-{[(2R,3S)-1-(cyanoacetyl)-2-methylpyrrolidin-3-yl]oxy}-6-(propan-2-yloxy)quinoline-7-carboxamide formate] | 111 nM
CC(C)Oc1cc2c(OC3CCNCC3)nccc2cc1C(N)=O [Example 60, 1-(piperidin-4-yloxy)-7-(propan-2-yloxy)isoquinoline-6-carboxamide] | 92 nM
CC(C)Oc1cc2c(OC3CCCNC3)nccc2cc1C(N)=O (stereo not shown) [Example 64, 1-(piperidin-3-yloxy)-7-(propan-2-yloxy)isoquinoline-6-carboxamide hydrochloride] | 160 nM
CC(C)Oc1cc2c(O[C@@H]3CCN(C(=O)CC#N)C3)nccc2cc1C(N)=O [Example 2, 1-{[(3R)-1-(cyanoacetyl)pyrrolidin-3-yl]oxy}-7-(propan-2-yloxy)isoquinoline-6-carboxamide formate] | 66 nM
CC(C)Oc1cc2c(O[C@@H]3CCCN(C(=O)CC#N)C3)ncc(Cl)c2cc1C(N)=O [Example 37, 4-chloro-1-{[(3R)-1-(cyanoacetyl)piperidin-3-yl]oxy}-7-(propan-2-yloxy)isoquinoline-6-carboxamide] | 40 nM
Cc1cc(O[C@@H]2CCCNC2)c2cc(OC(C)C)c(C(N)=O)cc2n1 [Example 68, (R)-6-isopropoxy-2-methyl-4-(piperidin-3-yloxy)quinoline-7-carboxamide trifluoroacetate] | 1300 nM

Results, then the molecule that gave them:

IC50 | SMILES
626 nM | CC(C)Oc1cc2c(O[C@@H]3CCCN(C(=O)C(C)(N)CO)C3)ccnc2cc1C(N)=O (mixture of isomers) [Example 12, Racemic-4-{[(3R)-1-(2-amino-3-hydroxy-2-methylpropanoyl)piperidin-3-yl]oxy}-6-(propan-2-yloxy)quinoline-7-carboxamide formate]
65 nM | CC(C)Oc1cc2c(O[C@H]3CN(C(=O)CC#N)CC[C@@H]3C)ccnc2cc1C(N)=O [Example 52, 4-{[(3R,4S)-1-(cyanoacetyl)-4-methylpiperidin-3-yl]oxy}-6-(propan-2-yloxy)quinoline-7-carboxamide]
856 nM | CC(C)Oc1cc2c(O[C@@H]3CCCN(C(=O)c4c[nH]cn4)C3)ccnc2cc1C(N)=O [Example 14, 4-{[(3R)-1-(1H-imidazol-4-ylcarbonyl)piperidin-3-yl]oxy}-6-(propan-2-yloxy)quinoline-7-carboxamide formate]
101 nM | N#CCC(=O)N1CCC[C@@H](Oc2ccnc3cc(C(N)=O)c(OC(F)F)cc23)C1 [Example 31, 4-{[(3R)-1-(cyanoacetyl)piperidin-3-yl]oxy}-6-(difluoromethoxy) quinoline-7-carboxamide]
28 nM | COc1cc2c(O[C@@H]3CCCN(C(=O)CC#N)C3)ccnc2cc1C(N)=O [Example 30, (R)-4-((1-(2-cyanoacetyl)piperidin-3-yl)oxy)-6-methoxyquinoline-7-carboxamide]
999 nM | CC(C)Oc1cc2c(O[C@@H]3CCCN(C(=O)C4(CN)CC4)C3)ccnc2cc1C(N)=O [Example 15, 4-{[(3R)-1-{[1-(aminomethyl)cyclopropyl]carbonyl}piperidin-3-yl]oxy}-6-(propan-2-yloxy)quinoline-7-carboxamide formate]
1200 nM | CC(C)Oc1cc2c(OC3CCCN(C)C3)ccnc2cc1C(N)=O (stereo not shown) [Example 71, 4-[(1-methylpiperidin-3-yl)oxyl]-6-(propan-2-yloxy)quinoline-7-carboxamide]
1230 nM | CC(C)Oc1cc2c(O[C@@H]3CCNC3)ccnc2cc1C(N)=O [Example 77, 6-(propan-2-yloxy)-4-[(3R)-pyrrolidin-3-yloxy]quinoline-7-carboxamide]
263 nM | CC(C)Oc1cc2c(O[C@@H]3CCCN(C(=O)C(F)(F)F)C3)ccnc2cc1C(N)=O [Example 9, 6-(propan-2-yloxy)-4-{[(3R)-1-(trifluoroacetyl)piperidin-3-yl]oxy}quinoline-7-carboxamide formate]
135 nM | CC(C)Oc1cc2c(O[C@@H]3CCCNC3)ccnc2cc1C(N)=O [Example 58, (R)-4-(piperidin-3-yloxy)-6-(propan-2-yloxy)quinoline-7-carboxamide hydrochloride]
143 nM | CC(C)Oc1cc2c(O[C@@H]3CCCN(C(=O)[C@H](C)N)C3)ccnc2cc1C(N)=O [Example 7, 4-{[(3R)-1-(L-alanyl)piperidin-3-yl]oxy}-6-(propan-2-yloxy)quinoline-7-carboxamide formate]
266 nM | CC(C)Oc1cc2c(O[C@@H]3CCCN(C(=O)CCC#N)C3)ccnc2cc1C(N)=O [Example 35]
751 nM | CC(C)Oc1cc2c(O[C@@H]3CCCN(C(=O)[C@H](C)O)C3)ccnc2cc1C(N)=O [Example 13, 4-({(3R)-1-[(2S)-2-hydroxypropanoyljpiperidin-3-yl}oxy)-6-(propan-2-yloxy)quinoline-7-carboxamide formate]
